Laboratory results: the NIST ThermoML archive (doi:10.1016/j.jct.2010.04.026)
Values joined by “and” are separate entries in the source; they are usually repeats but may differ in a detail not shown here. Identical values can stand only once. ± gives the expanded uncertainty stated by the source.

Settings: Crystal; for mass density: 295.1 K, 101.33 kPa, pellet size and mass; for vapor or sublimation pressure: Calculated from knudsen effusion weight loss

## Nc1ccc2[nH]ncc2c1 [5-aminoindazole]
  mass density: 1400 ± 30 kg/m3
358.12 K
  vapor or sublimation pressure: 8.43e-05 ± 4.2e-06 kPa and 8.3e-05 ± 4.2e-06 kPa
360.18 K
  vapor or sublimation pressure: 0.000101 ± 5.1e-06 kPa and 0.0001064 ± 5.3e-06 kPa and 0.000103 ± 5.2e-06 kPa
362.16 K
  vapor or sublimation pressure: 0.0001305 ± 6.5e-06 kPa and 0.0001265 ± 6.3e-06 kPa and 0.0001259 ± 6.3e-06 kPa
364.11 K
  vapor or sublimation pressure: 0.0001563 ± 7.8e-06 kPa and 0.0001589 ± 8e-06 kPa and 0.0001556 ± 7.8e-06 kPa
366.17 K
  vapor or sublimation pressure: 0.0001991 ± 1e-05 kPa and 0.0001966 ± 9.8e-06 kPa and 0.0001879 ± 9.4e-06 kPa
368.17 K
  vapor or sublimation pressure: 0.0002397 ± 1.2e-05 kPa and 0.0002332 ± 1.2e-05 kPa and 0.0002247 ± 1.1e-05 kPa
370.13 K
  vapor or sublimation pressure: 0.0002948 ± 1.5e-05 kPa and 0.0002986 ± 1.5e-05 kPa
372.18 K
  vapor or sublimation pressure: 0.0003483 ± 1.7e-05 kPa and 0.0003696 ± 1.8e-05 kPa and 0.0003499 ± 1.7e-05 kPa
374.15 K
  vapor or sublimation pressure: 0.0004435 ± 2.2e-05 kPa and 0.0004334 ± 2.2e-05 kPa and 0.0004198 ± 2.1e-05 kPa
376.13 K
  vapor or sublimation pressure: 0.0005419 ± 2.7e-05 kPa and 0.000534 ± 2.7e-05 kPa and 0.0005297 ± 2.7e-05 kPa
378.17 K
  vapor or sublimation pressure: 0.0006618 ± 3.3e-05 kPa and 0.000668 ± 3.3e-05 kPa and 0.0006232 ± 3.1e-05 kPa
380.16 K
  vapor or sublimation pressure: 0.0007639 ± 3.8e-05 kPa and 0.0007696 ± 3.9e-05 kPa and 0.0007519 ± 3.8e-05 kPa

## Nc1ccc2cn[nH]c2c1 [6-aminoindazole]
  mass density: 1450 ± 30 kg/m3
366.14 K
  vapor or sublimation pressure: 0.0001031 ± 5.2e-06 kPa and 0.0001023 ± 5.1e-06 kPa and 0.0001025 ± 5.1e-06 kPa
368.17 K
  vapor or sublimation pressure: 0.0001275 ± 6.4e-06 kPa and 0.0001257 ± 6.3e-06 kPa and 0.0001221 ± 6.1e-06 kPa
370.18 K
  vapor or sublimation pressure: 0.0001528 ± 7.7e-06 kPa and 0.0001513 ± 7.6e-06 kPa and 0.0001468 ± 7.4e-06 kPa
372.14 K
  vapor or sublimation pressure: 0.0001919 ± 9.6e-06 kPa and 0.0001878 ± 9.4e-06 kPa and 0.0001923 ± 9.6e-06 kPa
374.16 K
  vapor or sublimation pressure: 0.0002356 ± 1.2e-05 kPa and 0.000234 ± 1.2e-05 kPa and 0.0002228 ± 1.1e-05 kPa
376.17 K
  vapor or sublimation pressure: 0.0002875 ± 1.4e-05 kPa and 0.0002739 ± 1.4e-05 kPa
378.15 K
  vapor or sublimation pressure: 0.0003523 ± 1.8e-05 kPa and 0.0003592 ± 1.8e-05 kPa and 0.0003463 ± 1.7e-05 kPa
380.16 K
  vapor or sublimation pressure: 0.0004332 ± 2.2e-05 kPa and 0.000428 ± 2.1e-05 kPa and 0.0004138 ± 2.1e-05 kPa
382.17 K
  vapor or sublimation pressure: 0.0005244 ± 2.6e-05 kPa and 0.0005044 ± 2.5e-05 kPa and 0.0005114 ± 2.6e-05 kPa
384.15 K
  vapor or sublimation pressure: 0.0006281 ± 3.1e-05 kPa and 0.0006132 ± 3.1e-05 kPa and 0.0006304 ± 3.2e-05 kPa
386.16 K
  vapor or sublimation pressure: 0.0007813 ± 3.9e-05 kPa and 0.0007708 ± 3.9e-05 kPa and 0.0007396 ± 3.7e-05 kPa
388.17 K
  vapor or sublimation pressure: 0.0009109 ± 4.6e-05 kPa and 0.0008984 ± 4.5e-05 kPa and 0.0008878 ± 4.4e-05 kPa
